Measured values: ChEMBL document CHEMBL4609989, “Synthesis and antileishmanial activity of fluorinated rhodacyanine analogues: The 'fluorine-walk' analysis” (Bioorg Med Chem, 2020)
The source made the active and inactive calls. The calls are words filed in the database; no cut-off is given here.

Columns and labels:
Leishmania orientalis [1] = assay: Antileishmanial activity against Leishmania orientalis MHOM/TH/2010/PCM2 promastigote at 0.25 uM incubated for 72 hrs by resazurin dye based colorimetric assay relative to control; format: functional; conditions: for inhibition at 0.25 µM: Leishmania orientalis, MHOM/TH/2010/PCM2, 72 h
J774.A1 [2] = assay: Cytotoxicity against mouse J774A.1 cells assessed as reduction in cell viability at 4.0 uM incubated for 72 hrs by colorimetric assay relative to control; format: cell-based; conditions: j774.a1, 72 h
[3] = test system: Leishmania martiniquensis; assay: Antileishmanial activity against Leishmania martiniquensis MHOM/MQ/92/MAR promastigote at 0.1 uM incubated for 72 hrs by resazurin dye based colorimetric assay relative to control; format: functional; conditions: for inhibition at 0.1 µM: Leishmania martiniquensis, MHOM/MQ/92/MAR, 72 h
[4] = test system: Leishmania martiniquensis; assay: Antileishmanial activity against Leishmania martiniquensis MHOM/MQ/92/MAR promastigote at 0.25 uM incubated for 72 hrs by resazurin dye based colorimetric assay relative to control; format: functional; conditions: for inhibition at 0.25 µM: Leishmania martiniquensis, MHOM/MQ/92/MAR, 72 h
Leishmania orientalis [5] = assay: Antileishmanial activity against Leishmania orientalis MHOM/TH/2010/PCM2 axenic amastigotes at 0.25 uM incubated for 72 hrs by resazurin dye based colorimetric assay relative to control; format: functional; conditions: for inhibition at 0.25 µM: Leishmania orientalis, MHOM/TH/2010/PCM2, 72 h
J774.A1 [6] = assay: Cytotoxicity against mouse J774A.1 cells assessed as reduction in cell viability at 0.25 uM incubated for 72 hrs by colorimetric assay relative to control; format: cell-based; conditions: j774.a1, 72 h
Leishmania orientalis [7] = assay: Antileishmanial activity against Leishmania orientalis MHOM/TH/2010/PCM2 promastigote at 0.1 uM incubated for 72 hrs by resazurin dye based colorimetric assay relative to control; format: functional; conditions: for inhibition at 0.1 µM: Leishmania orientalis, MHOM/TH/2010/PCM2, 72 h
Leishmania orientalis [8] = assay: Antileishmanial activity against Leishmania orientalis MHOM/TH/2010/PCM2 promastigote incubated for 72 hrs by resazurin dye based colorimetric assay; format: functional, organism-based
Leishmania orientalis [9] = assay: Antileishmanial activity against Leishmania orientalis MHOM/TH/2010/PCM2 axenic amastigotes incubated for 72 hrs by resazurin dye based colorimetric assay; format: functional, organism-based
[10] = test system: Leishmania martiniquensis; assay: Antileishmanial activity against Leishmania martiniquensis MHOM/MQ/92/MAR promastigote incubated for 72 hrs by resazurin dye based colorimetric assay; format: functional, organism-based
[11] = test system: Leishmania martiniquensis; assay: Potency index, ratio of IC50 for miltefosine to IC50 for test compound for antileishmanial activity against Leishmania martiniquensis MHOM/MQ/92/MAR promastigote incubated for 72 hrs by resazurin dye based colorimetric assay; format: functional
[12] = Leishmania orientalis, MHOM/TH/2010/PCM2, 72 h
[13] = Leishmania martiniquensis, MHOM/MQ/92/MAR, 72 h

Row | SMILES | inhibition at 0.25 µM (Leishmania orientalis [1]) [%] | Activity (J774.A1 [2]) [%] | inhibition at 0.1 µM [3] [%] | inhibition at 0.25 µM [4] [%] | inhibition at 0.25 µM (Leishmania orientalis [5]) [%] | Activity (J774.A1 [6]) | inhibition at 0.1 µM (Leishmania orientalis [7]) [%] | IC50 (Leishmania orientalis [8]; [12]) [nM] | IC50 (Leishmania orientalis [9]; [12]) [nM] | IC50 [10, 13] [nM] | also measured
1 | CCn1c(=O)/c(=C/C=C2\Sc3ccccc3N2C)s/c1=C\c1sc2cc(C(F)(F)F)ccc2[n+]1C.[Cl-] | 87.6 | 33.3 | 10.5 | 24.9 | 71.1 | 0.5% | 39 |  |  |  | 
2 | CCn1c(=O)/c(=C/C=C2\Sc3cc(F)ccc3N2C)s/c1=C\c1sc2ccccc2[n+]1C.[Cl-] | 96 | 61.8 | 40.3 | 87.8 | 91.2 | Non-Toxic | 60 | 88 | 223 |  | 
3 | CCn1c(=O)/c(=C/C=C2\Sc3c(F)cccc3N2C)s/c1=C\c1sc2ccccc2[n+]1C.[Cl-] | 75.4 | 72.8 | 56.1 | 92.7 | 47.9 | Non-Toxic |  |  |  | 272 | inhibition (Leishmania orientalis [7]): inactive
4 | CCn1c(=O)/c(=C/C=C2\Sc3ccc(F)cc3N2C)s/c1=C\c1sc2ccc(F)cc2[n+]1C.[Cl-] | 81.5 | 13.8 | 56.4 | 79.8 | 87.9 | Non-Toxic | 57.5 | 161 | 80 |  | 
5 | CCn1c(=O)/c(=C/C=C2\Sc3ccccc3N2C)s/c1=C\c1sc2ccc(F)cc2[n+]1C.[Cl-] |  | 26.9 |  |  |  | Non-Toxic |  |  |  |  | IC50 (Leishmania orientalis [8]): 104 nM; Ratio IC50 [11]: 200; inhibition (INH) (Leishmania orientalis [1]): 91.7%; IC50 [10]: 85 nM; inhibition (INH) [3]: 82.8%; inhibition (INH) [4]: 89.3%; IC50 (Leishmania orientalis [9]): 80 nM; inhibition (INH) (Leishmania orientalis [5]): 86.5%; inhibition (INH) (Leishmania orientalis [7]): 66.2%
6 | CCn1c(=O)/c(=C/C=C2\Sc3ccccc3N2C)s/c1=C\c1sc2cccc(F)c2[n+]1C.[Cl-] | 92.9 | 24.9 | 37.7 | 64.1 | 58.2 | Non-Toxic | 67.5 | 65 |  |  | 
7 | CCn1c(=O)/c(=C/C=C2\Sc3cccc(F)c3N2C)s/c1=C\c1sc2ccccc2[n+]1C.[Cl-] | 84.2 | 13.4 | 30 | 73 | 40.2 | Non-Toxic | 33 |  |  |  | 
8 | CCn1c(=O)/c(=C/C=C2\Sc3ccc(F)cc3N2C)s/c1=C\c1sc2cc(F)ccc2[n+]1C.[Cl-] | 79.3 | 21 | 43.9 | 75.9 | 88.9 | Non-Toxic | 20.4 |  | 81 |  | 
9 | C[C@@H]1[C@H](O)[C@@H](C)/C=C/C=C/C=C/C=C/C=C/C=C/C=C/[C@H](O[C@@H]2O[C@H](C)[C@@H](O)[C@H](N)[C@@H]2O)C[C@@H]2O[C@](O)(C[C@@H](O)C[C@@H](O)[C@H](O)CC[C@@H](O)C[C@@H](O)CC(=O)O[C@H]1C)C[C@H](O)[C@H]2C(=O)O [AMPHOTERICIN B] | 96.7 | 16.7 | 94.2 | 97.5 | 91.1 | Non-Toxic | 96.2 | 23 | 108 | 31 | 
10 | CCn1c(=O)/c(=C/C=C2\Sc3ccccc3N2C)s/c1=C\c1sc2cc(OC(F)(F)F)ccc2[n+]1C.[Cl-] | 60.9 | 48.6 | 8.7 | 27.1 | 59.2 | Non-Toxic | 12.5 |  |  |  | 
11 | CCCCCCCCCCCCCCCCOP(=O)([O-])OCC[N+](C)(C)C [MILTEFOSINE] | 4 | 12.4 |  |  | 24.9 | 7.3% |  |  |  | 15800 | inhibition [3]: inactive; inhibition [4]: inactive; inhibition (Leishmania orientalis [7]): inactive
12 | CCn1c(=O)/c(=C/C=C2\Sc3cc(C(F)(F)F)ccc3N2C)s/c1=C\c1sc2ccc(F)cc2[n+]1C.[Cl-] | 33.3 | 52.2 | 5.9 | 39.2 | 68.4 | 13.3% |  |  |  |  | inhibition (Leishmania orientalis [7]): inactive
13 | CCn1c(=O)/c(=C/C=C2\Sc3ccccc3N2C)s/c1=C\c1sc2c(F)cccc2[n+]1C.[Cl-] | 88.9 | 88.5 | 41.1 | 85.2 | 42.9 | Non-Toxic | 13.9 |  |  |  | 
14 | CCn1c(=O)/c(=C/C=C2\Sc3cc(F)ccc3N2C)s/c1=C\c1sc2ccc(F)cc2[n+]1C.[Cl-] | 93 | 20.7 | 54.3 | 93.4 | 93 | Non-Toxic | 32.3 |  | 85 | 142 | 
15 | CCn1c(=O)/c(=C/C=C2\Sc3ccccc3N2C)s/c1=C\c1sc2ccccc2[n+]1C.[Cl-] | 81.5 | 19.2 | 21 | 70.8 | 36.8 | Non-Toxic | 11.5 | 302 | 909 | 658 | 
16 | CCn1c(=O)/c(=C/C=C2\Sc3ccccc3N2C)s/c1=C\c1sc2cc(F)ccc2[n+]1C.[Cl-] | 95.4 | 41.3 | 57.1 | 71.1 | 78.5 | Non-Toxic | 85.7 | 40 | 200 |  | 
17 | CCn1c(=O)/c(=C/C=C2\Sc3ccccc3N2C)s/c1=C\c1sc2cc(F)c(F)cc2[n+]1C.[Cl-] | 89.5 | 18.6 | 80.6 | 91.2 | 92.8 | Non-Toxic | 61.6 | 114 | 77 | 106 | 
18 | CCn1c(=O)/c(=C/C=C2\Sc3cc(F)ccc3N2C)s/c1=C\c1sc2cc(F)ccc2[n+]1C.[Cl-] | 76 | 46 | 17.6 | 62.9 | 62.1 | Non-Toxic | 1.9 |  |  |  | 
19 | CCn1c(=O)/c(=C/C=C2\Sc3ccc(F)cc3N2C)s/c1=C\c1sc2ccccc2[n+]1C.[Cl-] | 90.4 | 37 | 76.9 | 89.2 | 92.2 | Non-Toxic | 50.1 | 133 | 134 | 139 | 
20 | CCn1c(=O)/c(=C/C=C2\Sc3ccccc3N2C)s/c1=C\c1sc2ccc(F)cc2[n+]1C.Cc1ccc(S(=O)(=O)[O-])cc1 | 91.7 | 31.1 | 85.4 | 89.5 | 91 | Non-Toxic | 78.8 | 98 | 110 | 76 | 
